Laboratory results reported in patent US20180188258A1, “MARKER FOR HETEROGENEITY OF CANCER TISSUE, AND USE THEREOF” (Keio University, priority 2015, published 2018).

Test system: cancer tissue of the Mix mouse (MDA-MB-231 + HCC1937 cells) and of the 231 mouse (MDA-MB-231 cells)
Assay: Study on therapeutic effects by anticancer drug in tumor-bearing mice (tumor volume over time)
Assay type: in vivo
Conditions: Paclitaxel 3 mg/kg intraperitoneally once a week; Mix mouse compared with 231 mouse; BALB/c-nu; control physiological saline
Excerpt: The MDA-MB-231 cell line and the HCC1937 cell line were mixed so that the cell number of the HCC1937 cell line was larger than the cell number of the MDA-MB-231 cell line, preferably the cell number of HCC1937 cell line:cell number of MDA-231 cell line was a ratio of 2:1 or more, for example, 9:1. Then, the cell mixture was transplanted into the fourth mammary gland adipose tissue of an immunodeficient mouse (4 weeks old, female, BALB/c-nu) to thereby construct a tumor-bearing mouse (hereinafter, sometimes referred to as “Mix mouse”). Only the MDA-MB-231 cell line and only the HCC1937 cell line were respectively transplanted into the fourth mammary gland adipose tissue of an immunodeficient mouse (4 weeks old, female, BALB/c-nu) to thereby construct tumor-bearing mice (hereinafter, sometimes referred to as “231 mouse” and “1937 mouse”, respectively) as controls.
Paclitaxel (3 mg/kg) was administered intraperitoneally once a week to Mix mouse and 231 mouse constructed in the same manner as in Experimental Example 2, the tumor diameter was measured with time, and temporal changes in tumor volume were observed (n=5 in each case). As controls, temporal changes in tumor volume were also observed for the groups (control groups) in which physiological saline was administered intraperitoneally in place of paclitaxel (n=5 in each case). […]

SMILES: CC(=O)O[C@H]1C(=O)[C@@]2(C)[C@H]([C@H](OC(=O)c3ccccc3)[C@]3(O)C[C@H](OC(=O)[C@H](O)[C@@H](NC(=O)c4ccccc4)c4ccccc4)C(C)=C1C3(C)C)[C@]1(OC(C)=O)CO[C@@H]1C[C@@H]2O [Paclitaxel]
- temporal changes in tumor volume (resistance of the cancer tissue to paclitaxel): the cancer tissue of the Mix mouse has higher resistance to paclitaxel than the cancer tissue of the 231 mouse
